For eight molecules, IC50 results are on record in US20230391748A1, “BICYCLIC INHIBITORS OF IRAK” (priority 2022, published 2023).

Test [1] concerns IL23p19 in THP-1 Cells. In words: LPS Induced IL23p19 in THP-1 Cells (with IFNγ Primed) Assay. The test is classed as cell-based. To be noted: Homo sapiens, THP-1, 18 h, read-out: IL23 (THP, LPS) (IC50, μM). In a few lines: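 THP-1 cells (50K/well) primed with IFNγ (50 ng/mL) about 18 h, then given compound and stimulated with LPS for 18 h at 37 °C. Secreted IL-23p19 measured by sandwich ELISA with chemiluminescent read-out, giving EC50. Cell Titer Glo used on the remaining cells for toxicity.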

Test [2] has as its system TNF-α in human PBMCs. In words: R848-induced TNF-α in human PBMCs Assay. The test is classed as cell-based. To be noted: Homo sapiens, PBMC, 4 h, read-out: TNFα (PBMC, R848) (IC50, μM). The procedure, abridged: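 Human PBMCs at 200K/well were pretreated with compound, then R848-stimulated for 4 h at 37 °C, 5% CO2. Supernatant TNF-α quantified by chemiluminescent ELISA; EC50 from curve fitting.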

The subject of test [3] is TNF-α in Human Primary Monocyte-Derived Dendritic Cells. In words: Gardiquimod-Induced TNF-α in Human Primary Monocyte-Derived Dendritic Cells. The conditions noted are these: Dendritic cell, IFNγ-primed monocyte-derived dendritic cells, 4 μg/ml Gardiquimod, 6 hours, TNF-α ELISA, read-out: TNFα (DC, GARD) (IC50). The class given is cell-based. In a few lines:
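Monocytes differentiated 7 days with GM-CSF and IL-4, then primed 24 h with 50 ng/ml IFN-γ. Compound added 1 h before 6 h stimulation with 4 μg/ml Gardiquimod, 0.5% DMSO final. Supernatant TNF-α measured by chemiluminescent ELISA; EC50 from curve fitting.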
In general terms: ELISA stands for enzyme-linked immunosorbent assay.

The target of test [4] is IRAK4 (Homo sapiens (Human), UniProt Q9NWZ3). Nature of the test: IRAK4 ADP-Glo Assay. The class given is biochemical. To be noted: MBP substrate. In a few lines:
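Human IRAK4 kinase reaction with MBP substrate plus ATP in Tris-HCl/MgCl2/BSA/DTT buffer, pH 7.4, run 60 min at room temperature or 30 min at 30 °C. ADP formed was measured by ADP-Glo luminescence after ATP depletion (40 min) and detection reagent (30 min).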

Sequence of IRAK4 (Q9NWZ3 whole entry): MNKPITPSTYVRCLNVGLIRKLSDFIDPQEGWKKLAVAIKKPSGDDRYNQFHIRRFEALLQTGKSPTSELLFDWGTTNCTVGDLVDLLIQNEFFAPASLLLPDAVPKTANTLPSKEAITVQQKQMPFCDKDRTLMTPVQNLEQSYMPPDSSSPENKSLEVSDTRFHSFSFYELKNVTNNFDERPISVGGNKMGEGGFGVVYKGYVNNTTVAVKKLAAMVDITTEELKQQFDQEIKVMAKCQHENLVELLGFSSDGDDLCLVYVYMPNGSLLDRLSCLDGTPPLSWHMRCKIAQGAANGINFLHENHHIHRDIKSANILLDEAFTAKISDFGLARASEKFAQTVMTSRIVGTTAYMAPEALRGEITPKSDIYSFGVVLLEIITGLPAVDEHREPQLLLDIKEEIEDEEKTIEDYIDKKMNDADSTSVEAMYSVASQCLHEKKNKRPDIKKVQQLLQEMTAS

Usually IC50 stands for the point on the concentration scale where inhibition reaches its midpoint. Regarding `CC(C)Oc1cc2c(OC[C@@H]3CC(F)(F)C(=O)N3)ncc(-c3cnn(C4CCOCC4)c3)c2cc1C(N)=O` [Compound I-70, (S)-1-((4,4-difluoro-5-oxopyrrolidin-2-yl)methoxy)-7-isopropoxy-4-(1-(tetrahydro-2H-pyran-4-yl)-1H-pyrazol-4-yl)isoquinoline-6-carboxamide], the IC50 in test [1] came to 2.26 µM; in test [2], 0.292 µM; in test [3], 82.7 nM; in test [4] it was 6.8 nM.

On to `CC(C)Oc1cc2c(OC[C@@H]3CC(F)(F)C(=O)N3)ncc(-c3cnn(CC4CCOCC4)c3)c2cc1C(N)=O` [Compound I-71, (S)-1-((4,4-difluoro-5-oxopyrrolidin-2-yl)methoxy)-7-isopropoxy-4-(1-((tetrahydro-2H-pyran-4-yl)methyl)-1H-pyrazol-4-yl)isoquinoline-6-carboxamide], for which the IC50 in test [1] turned out to be 0.848 µM; in test [2], 0.174 µM; in test [3] it was 148 nM; in test [4] it was 6.4 nM.

For the molecule `CC(C)Oc1cc2c(OC[C@@H]3CC(F)(F)C(=O)N3)ncc(-c3cnn(CCC4CCOCC4)c3)c2cc1C(N)=O` [Compound I-72, (S)-1-((4,4-difluoro-5-oxopyrrolidin-2-yl)methoxy)-7-isopropoxy-4-(1-(2-(tetrahydro-2H-pyran-4-yl)ethyl)-1H-pyrazol-4-yl)isoquinoline-6-carboxamide], the IC50 in test [1] amounted to 0.872 µM; in test [2], 0.183 µM; in test [3], 273 nM; in test [4], 7 nM.

Regarding `CC(C)Oc1cc2c(OC[C@@H]3CC(F)(F)C(=O)N3)ncc(-c3cnn([C@H]4C[C@@H](N(C)C)C4)c3)c2cc1C(N)=O` [Compound I-73, 1-(((S)-4,4-difluoro-5-oxopyrrolidin-2-yl)methoxy)-4-(1-(cis-3-(dimethylamino)cyclobutyl)-1H-pyrazol-4-yl)-7-isopropoxyisoquinoline-6-carboxamide], the IC50 in test [1] is 1.04 µM; in test [2], 0.203 µM; in test [3], 259 nM; in test [4] it was 3 nM.

For `CC(C)Oc1cc2c(OC[C@@H]3CC(F)(F)C(=O)N3)ncc(-c3cnn(C4CCN(C(=O)OC(C)(C)C)CC4)c3)c2cc1C(N)=O` [Compound I-74, tert-butyl (S)-4-(4-(6-carbamoyl-1-((4,4-difluoro-5-oxopyrrolidin-2-yl)methoxy)-7-isopropoxyisoquinolin-4-yl)-1H-pyrazol-1-yl)piperidine-1-carboxylate], the concentration for half-maximal inhibition (IC50) in test [1] is 0.395 µM; in test [2], 0.141 µM; in test [3] it was 493 nM; in test [4], 11.2 nM.

As to `CC(C)Oc1cc2c(OC[C@@H]3CC(F)(F)C(=O)N3)ncc(-c3cnn(C4CCNCC4)c3)c2cc1C(N)=O` [Compound I-75, (S)-1-((4,4-difluoro-5-oxopyrrolidin-2-yl)methoxy)-7-isopropoxy-4-(1-(piperidin-4-yl)-1H-pyrazol-4-yl)isoquinoline-6-carboxamide], the IC50 in test [1] amounted to 85.4 µM; in test [2], 6.64 µM; in test [3], 4580 nM; in test [4], 4 nM.

`CC(C)Oc1cc2c(OC[C@@H]3CC(F)(F)C(=O)N3)ncc(-c3cnn(C4CCN(C)CC4)c3)c2cc1C(N)=O` [Compound I-76, (S)-1-((4,4-difluoro-5-oxopyrrolidin-2-yl)methoxy)-7-isopropoxy-4-(1-(1-methylpiperidin-4-yl)-1H-pyrazol-4-yl)isoquinoline-6-carboxamide]: the IC50 in test [1] is 1.11 µM; in test [2], 0.375 µM; in test [3], 452 nM; in test [4], 2.4 nM.

In the case of `CCO[C@H]1CC[C@H](n2cc(-c3cnc(OC[C@@H]4CC(F)(F)C(=O)N4)c4cc(OC(C)C)c(C(N)=O)cc34)cn2)CC1` [Compound I-77, 1-(((S)-4,4-difluoro-5-oxopyrrolidin-2-yl)methoxy)-4-(1-(trans-4-ethoxycyclohexyl)-1H-pyrazol-4-yl)-7-isopropoxyisoquinoline-6-carboxamide], the half-inhibitory concentration (IC50) in test [1] came to 0.152 µM; in test [2], 0.12 µM; in test [3], 349 nM; in test [4] it was 7 nM.
